Measured values as given in patent US5710015A, “cDNA cloning of inositol monophosphatase” (Merck, Sharp & Dohme, Ltd., priority 1992, dated 1998).
Read-outs that look alike come from different tables or passages of the source. Blank lines part the entries; values can stand above or below the molecule they belong to.

How the values were obtained:
[1] = molecular target: T1, native bovine brain inositol monophosphatase (Bos taurus, UniProt P20456); details: bovine brain enzyme, as reported in Gee et al., but confirmed here, cited from earlier work
T1 construct: both the native and recombinant bovine enzymes; from tissue; host or cells: bovine brain
T1 sequence (P20456 1-277): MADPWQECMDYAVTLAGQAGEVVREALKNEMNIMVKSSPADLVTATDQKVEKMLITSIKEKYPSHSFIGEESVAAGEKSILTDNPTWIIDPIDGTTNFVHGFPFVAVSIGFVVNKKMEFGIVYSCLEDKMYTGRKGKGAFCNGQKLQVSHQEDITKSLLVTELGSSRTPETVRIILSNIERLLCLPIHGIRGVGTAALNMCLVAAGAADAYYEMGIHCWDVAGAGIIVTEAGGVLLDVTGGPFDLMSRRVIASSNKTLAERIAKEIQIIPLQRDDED

[2] = molecular target: T2, bovine inositol monophosphatase (bovine enzyme, source not specified) (Bos taurus, UniProt P20456); experiment: Inhibition of bovine inositol monophosphatase (parallel comparison); type: biochemical; details: parallel experiment
T2 sequence (P20456 1-277): T1 sequence (P20456 1-277)
Method: (§1) All comparisons are from data obtained in parallel experiments carried out in this study.
One unit of enzyme activity represents 1 μmol of substrate hydrolysed/min, at 37° C. […] Kinetic analyses were performed as described previously [Gee et al., supra].

[3] = molecular target: T3, recombinant human brain inositol monophosphatase (IMP), SEQ. ID NO. 2, expressed in E. coli BL21-DE3 (Homo sapiens, UniProt P29218); experiment: Kinetics and inhibition of recombinant human inositol monophosphatase ([14C]inositol release from DL-Ins(1)P)
T3 sequence (P29218 1-277): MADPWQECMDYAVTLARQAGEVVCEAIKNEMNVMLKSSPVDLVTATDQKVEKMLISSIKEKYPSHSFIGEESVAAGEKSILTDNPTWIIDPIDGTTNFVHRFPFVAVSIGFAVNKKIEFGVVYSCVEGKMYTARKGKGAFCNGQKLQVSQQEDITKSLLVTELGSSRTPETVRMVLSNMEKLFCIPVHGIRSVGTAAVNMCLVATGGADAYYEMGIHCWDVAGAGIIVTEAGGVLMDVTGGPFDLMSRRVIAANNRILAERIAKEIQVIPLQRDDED
Method: Initial rates determined with several substrate concentrations were fitted to a Michaelis-Menten expression by non-linear least-squares regression analysis. […] Bovine brain values are as reported in Gee et al., supra, but confirmed here.
as §1
One unit of enzyme activity represents 1 μmol of substrate hydrolysed/min, at 37° C. Protein concentrations were determined by the method of Bradford [Bradford, M., (1976), Anal. Biochem., 72, pp. 248-252]. Kinetic analyses were performed as described previously [Gee et al., supra].

[4] = substrate: O=P(O)(O)O[C@@H]1[C@H](O)[C@H](O)[C@@H](O)[C@H](O)[C@H]1O; experiment: purified protein, by the assay type; details: mean ± S.E.M. (n=3)

Molecule: O=P(O)(O)O[C@@H]1[C@H](O)[C@H](O)[C@@H](O)[C@H](O)[C@H]1O (relative stereo) [DL-Ins(1)P]
Vmax ([1]; substrate DL-Ins(1)P): 13.3 ± 0.9 μmol/min per mg of protein | Km ([1]; read-out: Km for DL-Ins(1)P): 160 ± 20 µM

Ki ([2]; competitive inhibitor, read-out: apparent Ki): 1.1 µM | Ki [3]: 2.7 µM
Molecule: O=P(O)(O)O[C@H]1CC[C@H](O)C[C@H]1O [1S-phosphoryloxy-2R,4S-dihydroxycyclohexane]

Molecule: O=P(O)(O)O [Pi]
Ki ([2]; read-out: Ki (Pi)): 500 µM | Ki ([3]; read-out: Ki (Pi), competitive inhibition, recombinant human IMP): 140 µM

B1: recombinant human brain inositol monophosphatase (IMP), SEQ. ID NO. 2, expressed in E. coli BL21-DE3 (Homo sapiens) (protein)
chain: T3 sequence (P29218 1-277)
Km ([4]; other: human recombinant enzyme, 37° C.): 75 ± 3 µM

B2: native human platelet-derived inositol monophosphatase (Homo sapiens) (protein)
chain: T3 sequence (P29218 1-277)
Km ([4]; other: human platelet enzyme, 37.0 °C): 108 ± 3 µM

B3: recombinant bovine inositol monophosphatase (Bos taurus) (protein)
chain: T1 sequence (P20456 1-277)
Km ([4]; other: bovine recombinant enzyme, 37.0 °C): 120 ± 7 µM
